In US20040248913A1, “(Pyridinyl and pyrimidyl) trienoic acid derivatives as retinoid x receptor modulators” (priority 2001, published 2004):

Columns and labels:
RXRα:RAR heterodimer [1] = biological target: T1, RXRα:RAR heterodimer (Homo sapiens, UniProt P19793); assay: RXR:RAR heterodimer cotransfection assay in CV-1 cells; assay type: cell-based; conditions: for RXR:RAR antagonist activity (in words): antagonist assay; for Antagonist Efficacy (%): relative to maximal repression (100%) in presence of 10 nM TTNPB
T1 construct: expressed in transfected cells; host or cells: CV-1 cells
T1 sequence (P19793 1-462): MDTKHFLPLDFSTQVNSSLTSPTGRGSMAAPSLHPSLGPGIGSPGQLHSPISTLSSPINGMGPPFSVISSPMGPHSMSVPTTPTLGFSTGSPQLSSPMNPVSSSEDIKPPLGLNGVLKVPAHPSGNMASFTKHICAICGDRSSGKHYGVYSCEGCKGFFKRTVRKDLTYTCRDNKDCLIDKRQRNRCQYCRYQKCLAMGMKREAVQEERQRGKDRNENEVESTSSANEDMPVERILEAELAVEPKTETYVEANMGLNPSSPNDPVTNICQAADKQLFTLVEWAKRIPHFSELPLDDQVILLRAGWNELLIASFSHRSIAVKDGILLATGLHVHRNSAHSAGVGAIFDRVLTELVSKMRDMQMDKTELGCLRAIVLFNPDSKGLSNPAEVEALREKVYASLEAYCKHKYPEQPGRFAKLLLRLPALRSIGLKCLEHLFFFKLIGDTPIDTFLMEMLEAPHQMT
From the text: (§1) In the co-transfection assay, cloned cDNA for one or more IRs (e.g., human RARα, RXRα, or PPARγ), alone or in combination (i.e. for heterodimer assays) under the control of a constitutive promoter (e.g., the SV 40, RSV or CMV promoter) is introduced by transfection (a procedure to introduce exogenous genes into cells) into a background cell substantially devoid of endogenous IRs. These introduced gene(s) direct the recipient cells to make the IR protein(s) of interest. A further gene is also introduced (co-transfected) into the same cells in conjunction with the IR gene(s). This further gene, comprising the cDNA for a reporter protein, such as firefly luciferase (LUC), controlled by an appropriate hormone responsive promoter containing a hormone response element (HRE). This reporter plasmid functions as a reporter for the transcriptional-modulating activity of the target IR(s). Thus, the reporter acts as a surrogate for the products (mRNA then protein) normally expressed by a gene under control of the target receptor(s) and their native hormone(s).
(§2) Compounds of the present invention were also tested for the ability to synergize with an RAR or PPARγ agonist in the context of an RXR heterodimer. […] Efficacy of the compounds of the present invention in the agonist and synergy assays was calculated as the maximum response obtained over the range of the dose response curve relative to the maximum response obtained by the reference agonist. Antagonist efficacy was determined as a function (%) of maximal inhibition.
(§3) RAR suppresses RXR ligand binding and transactivation of typical RXR agonists via allosteric interactions. […] However, when RAR is occupied, typical RXR agonists activate the heterodimer. […] To examine the effects of the compounds of the present invention on the transcriptional properties of the RXR:RAR heterodimer, a heterodimer cotransfection assay as described above was employed.

RXRα:RAR heterodimer [2] = assay: as above; assay type: cell-based, human; conditions: for Synergy Efficacy (%): maximal response in presence of 3 nM TTNPB relative to response to TTNPB alone; for Agonist Efficacy (%): maximal response relative to response of ATRA
From the text: as §1, §2, §3

RXRα homodimer = biological target: T2, RXRα homodimer (Homo sapiens, UniProt P19793); assay: RXR homodimer co-transfection assay in CV-1 cells (CRBPIITKLUC reporter); assay type: cell-based; conditions: for Agonist Efficacy (%): mean of n > 2; for Antagonist Efficacy (%) / IC50: RXRα homodimer; for Antagonist Efficacy (%): % of maximal inhibition in presence of fixed concentration (3.2×10^−8 M) of known RXR agonist; for IC50: in presence of known RXR agonist, read-out: Antagonist IC50; for Activity in the context of RXR homodimers (in words): summary of Table 1
T2 sequence (P19793 1-462): T1 sequence (P19793 1-462)
From the text: This assay is described in further detail in U.S. Pat. Nos. 4,981,784 and 5,071,773, the disclosures of which are incorporated herein by reference.
The co-transfection assay provides a method for identifying functional agonists which mimic, or antagonists which inhibit, the effect of native hormones, and quantifying their activity for responsive IR proteins. In this regard, the co-transfection assay mimics an in vivo system in the laboratory. Importantly, activity in the co-transfection assay correlates very well with known in vivo activity, such that the co-transfection assay functions as a qualitative and quantitative predictor of a tested compounds in vivo pharmacology. See, e.g., T. Berger et al. 41 J. Steroid Biochem. Molec. Biol. 773 (1992), the disclosure of which is herein incorporated by reference.
as §1
Exposing the transfected cells to an agonist ligand compound increases reporter activity in the transfected cells. This activity can be conveniently measured, e.g., by increasing luciferase production and enzymatic activity, which reflects compound-dependent, IR-mediated increases in reporter transcription. To detect antagonists, the co-transfection assay is carried out in the presence of a constant concentration of an known agonist to the target IR (e.g., 4-[(3,5,5,8,8-Pentamethyl-5,6,7,8-tetrahydro-2-naphthyl)ethenyl]benzoic acid (Ligand Pharmaceuticals, Inc.) for RXRα) known to induce a defined reporter signal. Increasing concentrations of an antagonist will decrease the reporter signal (e.g., luciferase production). The co-transfection assay is therefore useful to detect both agonists and antagonists of specific IRs. Furthermore, it determines not only whether a compound interacts with a particular IR, but whether this interaction mimics (agonizes) or blocks (antagonizes) the effects of native or synthetic regulatory molecules on target gene expression, as well as the specificity and strength of this interaction.
The receptor expression plsmid was cotransfected along with a reporter plasmid at 50 ng/well, the internal control plasmid pRS-β-Gal at 50 ng/well and filler DNA, pGEM, at 90 ng/well.

[3] = RXRα homodimer cotransfection, CV-1 cells
[4] = not calculated if efficacy <10%

Row | Antagonist Efficacy (%) (RXRα:RAR heterodimer [1]) | Agonist Efficacy (%) (RXRα homodimer; [3]) | Antagonist Efficacy (%) (RXRα homodimer) | IC50 (RXRα homodimer; [4]) [nM] | EC50 (RXRα homodimer; RXRα homodimer cotransfection, CV-1 cells, not calculated if efficacy <10%, read-out: Agonist EC50) [nM] | SMILES | RXR:RAR antagonist activity (in words) (RXRα:RAR heterodimer [1]) | RXR:RAR agonist activity / transactivation alone (in words) (RXRα:RAR heterodimer [2]) | RXR:RAR agonist activity in combination with TTNPB (in words) (RXRα:RAR heterodimer [2]) | Synergy Efficacy (%) (RXRα:RAR heterodimer [2]) | Agonist Efficacy (%) (RXRα:RAR heterodimer [2]) | Activity in the context of RXR homodimers (in words) (RXRα homodimer)
1 | 88 | 4 | 88 | 4.1 | – | CCCOc1c(\C(C)=C/C=C/C(C)=C/C(=O)O)cc(C(C)C)nc1C(C)C [Example 2, 7-(2,6-Diisopropyl-3-propoxy-pyridin-4-yl)-3-methyl-octa-2(E),4(E),6(Z)-trienoic Acid] | significant RXR:RAR antagonist activity | not active | not active | 6 | 2 | highly efficacious and potent antagonist activity with little or no agonists activity
2 | – | 51 | 3 | – | 2 | CCOc1c(\C(C)=C/C=C/C(C)=C/C(=O)O)cc(C(C)C)nc1C(C)C [Example 3, 7-(2,6-Diisopropyl-3-ethoxy-pyridin-4-yl)-3-methyl-octa-2(E),4(E),6(Z)-trienoic acid] | – | – | strong agonist activity | 73 | 6 | agonist activity
3 | 76 | 9 | 76 | 8.7 | – | C/C(=C/C=C/C(C)=C/C(=O)O)c1cc(C(C)C)nc(C(C)C)c1OCC(F)F [Example 4, 7-[3-(2,2-Difluoro-ethoxy)-2,6-diisopropyl-pyridin-4-yl]-3-methyl-octa-2(E),4(E),6(Z)-trienoic acid] | – | – | weak to moderate agonist activity | 37 | 9 | highly efficacious and potent antagonist activity with little or no agonists activity

Second part, the molecule before the results:

Row | SMILES | Antagonist Efficacy (%) (RXRα:RAR heterodimer [1]) | Agonist Efficacy (%) (RXRα homodimer; [3]) | Antagonist Efficacy (%) (RXRα homodimer) | IC50 (RXRα homodimer; [4]) [nM] | EC50 (RXRα homodimer; RXRα homodimer cotransfection, CV-1 cells, not calculated if efficacy <10%, read-out: Agonist EC50) [nM] | RXR:RAR antagonist activity (in words) (RXRα:RAR heterodimer [1]) | RXR:RAR agonist activity / transactivation alone (in words) (RXRα:RAR heterodimer [2]) | RXR:RAR agonist activity in combination with TTNPB (in words) (RXRα:RAR heterodimer [2]) | Synergy Efficacy (%) (RXRα:RAR heterodimer [2]) | Agonist Efficacy (%) (RXRα:RAR heterodimer [2]) | Activity in the context of RXR homodimers (in words) (RXRα homodimer)
4 | CCCCOc1c(\C(C)=C/C=C/C(C)=C/C(=O)O)cc(C(C)C)nc1C(C)C [Example 1, 7-(3-Butoxy-2,6-diisopropyl-pyridin-4-yl)-3-methyl-octa-2(E),4(E),6(Z)-trienoic Acid] | 93 | 1 | 93 | 3.5 | – | significant RXR:RAR antagonist activity | not active | not active | 7 | 1 | highly efficacious and potent antagonist activity with little or no agonists activity
5 | C/C(=C/C=C/C(C)=C/C(=O)O)c1cc(C(C)C)nc(C(C)C)c1OCC(F)(F)F [Example 5, 7-[2,6-Diisopropyl-3-(2,2,2-trifluoro-ethoxy)-pyridin-4-yl]-3-methyl-octa-2(E),4(E),6(Z)-trienoic acid] | 85 | 3 | 85 | 8 | – | – | – | weak to moderate agonist activity | 18 | 3 | highly efficacious and potent antagonist activity with little or no agonists activity
